Assay results from patent publication US20100249419A1, “UTILIZATION OF NOVEL COMPOUNDS WITH AMYLOID AFFINITY AND METHOD OF PRODUCING THE SAME” (NIHON MEDI-PHYSICS CO., LTD., priority 2007, published 2010).

Experiments:
[1] = [^11C]-labeled, rats; cited from earlier work
[2] = Partition coefficient based on the octanol extraction method; type: physicochemical; conditions: octanol / 10 mmol/L phosphate buffer (pH 7.4)
Description: Partition coefficients based on the octanol extraction method (hereinafter referred to as log Poctanol) were measured, which are generally known as an indicator of permeability of compounds through the blood-brain barrier (hereinafter referred to as BBB).
A diethyl ether solution of Compound 1 prepared in Example 3 (Example 8), a diethyl ether solution of Compound 2 prepared in Example 6 (Example 9), and a diethyl ether solution of [^123I]-IMPY prepared in Reference Example 1 (Comparative Example 4) were each diluted with 10 mg/mL ascorbic acid-containing physiological saline solution, and adjusted to a radioactive concentration of 20-30 MBq/mL. To 2 mL of octanol, 10 μL each of the prepared sample solutions was added, 2 mL of 10 mmol/L phosphate buffer (pH 7.4) was added, followed by stirring for 30 seconds. After the mixture was centrifuged with a low-speed centrifuge (2000 rpm×60 min.), the octanol layer and the water layer were sampled each in an amount of 1 mL, and subjected to measurement of radioactivity count with an autowell gamma system (Type: ARC-301B, manufactured by Aloka). Using the obtained radioactivity count, log Poctanol was calculated in accordance with the equation (2).
A diethyl ether solution (Example 20) of Compound 4 prepared in Example 16, a diethyl ether solution (Example 21) of Compound 6 prepared in Example 19, and a diethyl ether solution (Comparative Example 7) of [^123I]-IMPY were each diluted with a 10 mg/mL ascorbic acid-containing physiological saline solution to adjust to a radioactive concentration of 20-30 MBq/mL. To 2 mL of octanol, 10 μL each of the prepared sample solution was added, and 2 mL of 10 mmol/L phosphate buffer (pH 7.4) was further added, followed by stirring for 30 seconds. After the mixture was centrifuged with a low-speed centrifuge (2000 rpm×60 min.), the octanol layer and the water layer were sampled each in an amount of 1 mL, and subjected to measurement of radioactivity count with an autowell gamma system (Type: ARC-301B, manufactured by Aloka). Using the obtained radioactivity count, logPoctanol was calculated in accordance with the equation (4).

[3] = Transferability into brain and clearance; type: in vivo, male Wistar rats; conditions: intravenous injection, rats
Description: Using Compound 1 (Example 10) and Compound 2 (Example 11), a time course change of radioactive accumulation in brain of male Wistar rats (7-week old) was measured.
A diethyl ether solution of Compound 1 (Example 10) prepared in Example 3, a diethyl ether solution of Compound 2 (Example 11) prepared in Example 6 and a diethyl ether solution of [^123I]-IMPY (Comparative Example 5) prepared in Reference Example 1 were each diluted with 10 mg/mL ascorbic acid-containing physiological saline solution to adjust to a radioactive concentration of 8-12 MBq/mL. 0.05 mL each of the prepared sample solutions was injected under thiopental anesthesia into the tail vein of the rats. The rats were sacrificed by bleeding from abdominal artery, and brains were removed and subjected to measurement of mass of brains and further subjected to measurement of radioactivity (hereinafter referred to as A in this Example) with a single channel analyzer (detector type: SP-20 manufactured by OHYO KOKEN KOGYO Co., Ltd.) 2, 5, 30 and 60 minutes after the injection. Further, the radioactivity level of the rest of the whole body was measured in the same manner as above (hereinafter referred to as B in this Example). Using these measurement results, radioactive distribution per unit weight of brain (% ID/g) at the respective time points were calculated in accordance with the following formula (3).
Three animals were used for the experiment at the respective time points.
Using Compound 4 and Compound 6, a time course change of radioactive accumulation in brain of male Wistar rats (7-week old) was measured.
Compound 4 (Example 22), Compound 6 (Example 23) and a solution of [^123I]-IMPY (Comparative Example 8) prepared above in Reference Example 1 were each diluted with a 10 mg/mL ascorbic acid-containing physiological saline solution to prepare solutions (20-31 MBq/mL in radioactive concentration). 0.05 mL each of the prepared sample solutions was injected under thiopental anesthesia into the tail vein of the respective Wistar rat (7-week old). The rats were sacrificed by bleeding from abdominal artery, and brains were removed and subjected to measurement of mass of brains and further subjected to measurement of radioactivity (hereinafter referred to as A in this Example) with a single channel analyzer (detector type: SP-20 manufactured by OHYO KOKEN KOGYO Co., Ltd.) 2, 5, 30 and 60 minutes after the injection. Further, the radioactivity level of the rest of the whole body was measured in the same manner as above (hereinafter referred to as B in this Example). Using these measurement results, radioactive distribution per unit weight of brain (% ID/g) at the respective time points were calculated in accordance with the following formula (5).

[4] = molecular target: T1, aggregated Aβ (Aβ1-40) injected into amygdaloid nucleus (Homo sapiens, UniProt P05067); assay: Ex vivo autoradiogram using rats of amyloid injected model (Aβ1-40); type: in vivo, male Wistar rat; conditions: brain slice 60 minutes after tail vein injection
T1 construct: Aβ1-40 (manufactured by Peptide Institute, INC.) was dissolved in phosphate buffer (pH 7.4); purchased Peptide Institute, INC
Description: (1) Aβ1-40 (manufactured by Peptide Institute, INC.) was dissolved in phosphate buffer (pH 7.4) and shaken at 37° C. for 72 hours, to obtain a 1 mg/mL suspension of aggregated Aβ (hereinafter referred to as amyloid suspension in this Example).
(2) 2.5 μL (corresponding to […]) of the amyloid suspension was injected into an amygdaloid nucleus on one side of a male Wistar rat (7-week old). As a control, 2.5 μL of a phosphate buffered physiological saline solution (pH 7.4) was injected into an amygdaloid nucleus on the other side of the rat. The rats were examined 1 day after the injection of the amyloid suspension and the phosphate buffered physiological saline solution (pH 7.4).
(3) [^123I]-IMPY was dissolved in a 10 mg/mL ascorbic acid-containing physiological saline solution to obtain a sample solution (29 MBq/mL in radioactivity concentration in the sample solution). This solution was injected under thiopental anesthesia into the rat through the tail vein (dosage: 0.5 mL, dosed radioactivity: 14.5 MBq equivalent).
(4) Brain was removed 60 minutes after the injection to prepare a brain slice of 10 μm in thickness with a microtome (type: CM3050S, manufactured by LEICA). The brain slice was exposed to an imaging plate for 20 hours, and then image analysis was carried out by use of a Bio-imaging Analyzer (type: BAS-2500; manufactured by FUJIFILM Corporation). […]

T1 sequence (P05067 672-711): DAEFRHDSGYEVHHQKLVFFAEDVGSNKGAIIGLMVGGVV

| SMILES | Clearance from normal tissues [1] | logPoctanol value ([2]; Table 4, Examples 8-9) | logPoctanol value ([2]; Table 6, Examples 20-21) | Radioactive distribution per unit weight of brain ([3]; After 2 min., Table 5) | Radioactive distribution per unit weight of brain ([3]; After 2 min., Table 7) | Radioactive distribution per unit weight of brain ([3]; After 5 min., Table 5) | Radioactive distribution per unit weight of brain ([3]; After 5 min., Table 7) | Radioactive distribution per unit weight of brain ([3]; After 30 min., Table 5) | Radioactive distribution per unit weight of brain ([3]; After 30 min., Table 7) | Radioactive distribution per unit weight of brain ([3]; After 60 min., Table 5) | Radioactive distribution per unit weight of brain ([3]; After 60 min., Table 7) | Accumulation of radioactivity in amygdaloid nucleus on the amyloid-injected side [4] |
| --- | --- | --- | --- | --- | --- | --- | --- | --- | --- | --- | --- | --- |
| CNc1ccc(/C=C/c2ccc(O)cc2)cc1 [SB-13, (E)-4-methylamino-4′-hydroxystilbene] | it cannot be said that the clearance is sufficiently fast | – | – | – | – | – | – | – | – | – | – | – |
| CN(C)c1ccc(-c2cn3cc([123I])ccc3n2)cc1 [[^123I]-IMPY, reference compound] | – | 1.9 | 2.1 | 1.19 % ID/g | 1.19 % ID/g | 0.97 % ID/g | 0.97 % ID/g | 0.23 % ID/g | 0.23 % ID/g | 0.09 % ID/g | 0.09 % ID/g | marked accumulation of radioactivity |
